Data published in patent US8063053B2, “1-(arylsulfonyl)-4-(piperazin-1-yl)-1H-benzimidazoles as 5-hydroxytryptamine-6 ligands” (Wyeth LLC, priority 2008, dated 2011).

Biological target: T1, serotonin 5-HT6 receptor subtype (Homo sapiens, UniProt P50406)
T1 construct: host or cells: CHO-Dukx-A2 cells, clone 50-7
Experiment: 5-HT6 binding affinity ([3H]-LSD SPA binding)
Settings: read-out: 5-HT6 binding Ki

T1 sequence (P50406 whole entry): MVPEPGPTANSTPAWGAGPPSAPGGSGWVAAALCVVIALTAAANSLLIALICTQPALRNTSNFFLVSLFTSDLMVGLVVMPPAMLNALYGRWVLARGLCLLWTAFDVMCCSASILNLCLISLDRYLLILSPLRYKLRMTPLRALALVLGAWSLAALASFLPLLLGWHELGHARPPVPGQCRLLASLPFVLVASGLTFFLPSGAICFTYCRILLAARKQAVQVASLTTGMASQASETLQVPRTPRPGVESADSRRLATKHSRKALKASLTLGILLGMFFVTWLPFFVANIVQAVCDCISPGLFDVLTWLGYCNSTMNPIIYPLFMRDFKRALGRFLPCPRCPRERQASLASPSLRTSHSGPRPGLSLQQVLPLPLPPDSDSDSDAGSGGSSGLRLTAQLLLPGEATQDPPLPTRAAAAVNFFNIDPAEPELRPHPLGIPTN

| SMILES | Ki [nM] |
| --- | --- |
| O=S(=O)(c1ccccc1)n1cnc2c(N3C[C@@H]4C[C@H]3CN4)cccc21 [Example 104, 4-[(1S,4S)-2,5-diazabicyclo[2.2.1]hept-2-yl]-1-(phenylsulfonyl)-1H-benzimidazole] | 44.7 |
| Cc1ccc(F)c(S(=O)(=O)n2cnc3c(N4CCNCC4)cccc32)c1 [Example 72, 1-[(2-fluoro-5-methylphenyl)sulfonyl]-4-piperazin-1-yl-1H-benzimidazole] | 0.254 |
| Cc1nc2c(N3CCNCC3)cccc2n1S(=O)(=O)c1cccc(OC(F)(F)F)c1 [Example 14, 2-methyl-4-piperazin-1-yl-1-{[3-(trifluoromethoxy)phenyl]sulfonyl}-1H-benzimidazole] | 2.3 |
| Cc1nc2c(N3CCN[C@@H](C)C3)cccc2n1S(=O)(=O)c1cccc2c(Cl)cccc12 [Example 126, 1-[(5-chloro-1-naphthyl)sulfonyl]-2-methyl-4-[(3S)-3-methylpiperazin-1-yl]-1H-benzimidazole] | 1.05 |
| Cc1nc2c(N3CCNCC3)cccc2n1S(=O)(=O)c1cccc(Cl)c1 [Example 16, 1-[(3-chlorophenyl)sulfonyl]-2-methyl-4-piperazin-1-yl-1H-benzimidazole] | 0.99 |
| O=S(=O)(c1cccc(F)c1)n1cnc2c(N3CCNCC3)cccc21 [Example 22, 1-[(3-fluorophenyl)sulfonyl]-4-piperazin-1-yl-1H-benzimidazole] | 1.5 |
| Cc1nc2c(N3CCNCC3)cccc2n1S(=O)(=O)c1ccccc1F [Example 32, 1-[(2-fluorophenyl)sulfonyl]-2-methyl-4-piperazin-1-yl-1H-benzimidazole] | 2.5 |
| Cc1nc2c(N3C[C@@H](C)N[C@@H](C)C3)cccc2n1S(=O)(=O)c1ccccc1 [Example 96, 4-[(3R,5S)-3,5-dimethylpiperazin-1-yl]-2-methyl-1-(phenylsulfonyl)-1H-benzimidazole] | 27.2 |
| COc1cccc(S(=O)(=O)n2cnc3c(N4CCNCC4)cccc32)c1 [Example 34, 1-[(3-methoxyphenyl)sulfonyl]-4-piperazin-1-yl-1H-benzimidazole] | 1.2 |
| Cc1nc2c(N3C[C@@H]4C[C@H]3CN4)cccc2n1S(=O)(=O)c1ccccc1Cl [Example 111, 1-[(2-chlorophenyl)sulfonyl]-4-[(1S,4S)-2,5-diazabicyclo[2.2.1]hept-2-yl]-2-methyl-1H-benzimidazole] | 21 |
| Cc1c(Cl)cccc1S(=O)(=O)n1c(C)nc2c(N3C[C@@H](C)N[C@@H](C)C3)cccc21 [Example 100, 1-[(3-chloro-2-methylphenyl)sulfonyl]-4-[(3R,5S)-3,5-dimethylpiperazin-1-yl]-2-methyl-1H-benzimidazole] | 2.28 |
| CCCCc1nc2c(N3CCNCC3)cccc2n1S(=O)(=O)c1ccccc1 [Example 8, 2-butyl-1-(phenylsulfonyl)-4-piperazin-1-yl-1H-benzimidazole] | 1.1 |
| O=S(=O)(c1ccc2ccccc2c1)n1cnc2c(N3CCNCC3)cccc21 [Example 23, 1-(2-naphthylsulfonyl)-4-piperazin-1-yl-1H-benzimidazole] | 10.6 |
| Cc1nc2c(N3CCNCC3)cccc2n1S(=O)(=O)c1ccccc1Cl [Example 15, 1-[(2-chlorophenyl)sulfonyl]-2-methyl-4-piperazin-1-yl-1H-benzimidazole] | 0.99 |
| Cc1cccc(S(=O)(=O)n2c(C)nc3c(N4CCNCC4)cccc32)c1 [Example 18, 2-methyl-1-[(3-methylphenyl)sulfonyl]-4-piperazin-1-yl-1H-benzimidazole] | 1.3 |
| CN1CCN(c2cccc3c2ncn3S(=O)(=O)c2ccccc2)CC1 [Example 12, 4-(4-methylpiperazin-1-yl)-1-(phenylsulfonyl)-1H-benzimidazole] | 1.66 |
| Cc1nc2c(N3CCNC(C)C3)cccc2n1S(=O)(=O)c1cccc(F)c1 (stereo not shown) [Example 94, 1-[(3-fluorophenyl)sulfonyl]-2-methyl-4-(3-methylpiperazin-1-yl)-1H-benzimidazole] | 1.07 |
| O=S(=O)(c1cccc2c(Cl)cccc12)n1cnc2c(N3CCNCC3)cccc21 [Example 50, 1-[(5-chloro-1-naphthyl)sulfonyl]-4-piperazin-1-yl-1H-benzimidazole] | 1.36 |
| Cc1nc2c(N3C[C@@H](C)N[C@@H](C)C3)cccc2n1S(=O)(=O)c1ccccc1Cl [Example 98, 1-[(2-chlorophenyl)sulfonyl]-4-[(3R,5S)-3,5-dimethylpiperazin-1-yl]-2-methyl-1H-benzimidazole] | 3.5 |
| Cc1nc2c(N3CCN[C@H](C)C3)cccc2n1S(=O)(=O)c1cccc2c(Cl)cccc12 [Example 127, 1-[(5-chloro-1-naphthyl)sulfonyl]-2-methyl-4-[(3R)-3-methylpiperazin-1-yl]-1H-benzimidazole] | 8.38 |
| COc1ccc(S(=O)(=O)n2cnc3c(N4CCNCC4)cccc32)cc1 [Example 24, 1-[(4-methoxyphenyl)sulfonyl]-4-piperazin-1-yl-1H-benzimidazole] | 15.1 |
| Cc1nc2c(N3C[C@@H]4C[C@H]3CN4)cccc2n1S(=O)(=O)c1ccccc1 [Example 109, 4-[(1S,4S)-2,5-diazabicyclo[2.2.1]hept-2-yl]-2-methyl-1-(phenylsulfonyl)-1H-benzimidazole] | 30.5 |
| Cc1cccc(Cl)c1S(=O)(=O)n1cnc2c(N3CCNCC3)cccc21 [Example 70, 1-[(2-chloro-6-methylphenyl)sulfonyl]-4-piperazin-1-yl-1H-benzimidazole] | 2.33 |
| Cc1c(Cl)cccc1S(=O)(=O)n1c(C)nc2c(N3C[C@@H]4C[C@H]3CN4)cccc21 [Example 113, 1-[(3-chloro-2-methylphenyl)sulfonyl]-4-[(1S,4S)-2,5-diazabicyclo[2.2.1]hept-2-yl]-2-methyl-1H-benzimidazole] | 14.1 |
| Cc1nc2c(N3CCNCC3)cccc2n1S(=O)(=O)c1ccc(F)cc1 [Example 38, 1-[(4-fluorophenyl)sulfonyl]-2-methyl-4-piperazin-1-yl-1H-benzimidazole] | 10.5 |

Next, values leading:

| Ki [nM] | SMILES |
| --- | --- |
| 0.72 | O=S(=O)(c1ccccc1OC(F)(F)F)n1cnc2c(N3CCNCC3)cccc21 [Example 33, 4-piperazin-1-yl-1-{[2-(trifluoromethoxy)phenyl]sulfonyl}-1H-benzimidazole] |
| 1.13 | O=S(=O)(c1cccc(C(F)(F)F)c1)n1cnc2c(N3CCNCC3)cccc21 [Example 42, 4-piperazin-1-yl-1-{[3-(trifluoromethyl)phenyl]sulfonyl}-1H-benzimidazole] |
| 8.32 | CC(C)CC1CN(c2cccc3c2ncn3S(=O)(=O)c2cccc3ccccc23)CCN1 (stereo not shown) [Example 124, 4-(3-isobutylpiperazin-1-yl)-1-(1-naphthylsulfonyl)-1H-benzimidazole] |
| 2.09 | CC1CN(c2cccc3c2ncn3S(=O)(=O)c2ccccc2OC(F)(F)F)CCN1 (stereo not shown) [Example 57, 4-(3-methylpiperazin-1-yl)-1-{[2-(trifluoromethoxy)phenyl]sulfonyl}-1H-benzimidazole] |
| 1.28 | C[C@@H]1CN(c2cccc3c2ncn3S(=O)(=O)c2cccc3ccccc23)CCN1 [Example 78, 4-[(3R)-3-methylpiperazin-1-yl]-1-(naphthalen-1-ylsulfonyl)-1H-benzimidazole] |
| 2.35 | C[C@@H]1CN(c2cccc3c2ncn3S(=O)(=O)c2cccc(Cl)c2)CCN1 [Example 76, 1-[(3-chlorophenyl)sulfonyl]-4-[(3R)-3-methylpiperazin-1-yl]-1H-benzimidazole] |
| 1.15 | Cc1ccccc1S(=O)(=O)n1cnc2c(N3CCNCC3)cccc21 [Example 39, 1-[(2-methylphenyl)sulfonyl]-4-piperazin-1-yl-1H-benzimidazole] |
| 1.2 | Cc1c(Cl)cccc1S(=O)(=O)n1cnc2c(N3CCN[C@H](C)C3)cccc21 [Example 77, 1-[(3-chloro-2-methylphenyl)sulfonyl]-4-[(3R)-3-methylpiperazin-1-yl]-1H-benzimidazole] |
| 18.9 | O=S(=O)(c1ccc(C(F)(F)F)cc1)n1cnc2c(N3CCNCC3)cccc21 [Example 40, 4-piperazin-1-yl-1-{[4-(trifluoromethyl)phenyl]sulfonyl}-1H-benzimidazole] |
| 1.95 | O=S(=O)(c1cccc(OC(F)(F)F)c1)n1cnc2c(N3CCNCC3)cccc21 [Example 28, 4-piperazin-1-yl-1-{[3-(trifluoromethoxy)phenyl]sulfonyl}-1H-benzimidazole] |
| 0.855 | O=S(=O)(c1cc(F)ccc1F)n1cnc2c(N3CCNCC3)cccc21 [Example 84, 1-[(2,5-difluorophenyl)sulfonyl]-4-piperazin-1-yl-1H-benzimidazole] |
| 1.74 | Cc1nc2c(N3CCNCC3)cccc2n1S(=O)(=O)c1ccccc1OC(F)(F)F [Example 46, 2-methyl-4-piperazin-1-yl-1-{[2-(trifluoromethoxy)phenyl]sulfonyl}-1H-benzimidazole] |
| 0.931 | CC1CN(c2cccc3c2ncn3S(=O)(=O)c2ccccc2)CCN1 (stereo not shown) [Example 128, 4-(3-methylpiperazin-1-yl)-1-(phenylsulfonyl)-1H-benzimidazole] |
| 0.484 | CCC1CN(c2cccc3c2ncn3S(=O)(=O)c2ccccc2)CCN1 (stereo not shown) [Example 119, 4-(3-ethylpiperazin-1-yl)-1-(phenylsulfonyl)-1H-benzimidazole] |
| 1.34 | CC1CN(c2cccc3c2ncn3S(=O)(=O)c2ccccc2Cl)CCN1 (stereo not shown) [Example 53, 1-[(2-chlorophenyl)sulfonyl]-4-(3-methylpiperazin-1-yl)-1H-benzimidazole] |
| 0.488 | Cc1nc2c(N3CCNC(C)C3)cccc2n1S(=O)(=O)c1ccccc1Cl (stereo not shown) [Example 93, 1-[(2-chlorophenyl)sulfonyl]-2-methyl-4-(3-methylpiperazin-1-yl)-1H-benzimidazole] |
| 1.06 | O=S(=O)(c1ccccc1C(F)(F)F)n1cnc2c(N3CCNCC3)cccc21 [Example 41, 4-piperazin-1-yl-1-{[2-(trifluoromethyl)phenyl]sulfonyl}-1H-benzimidazole] |
| 0.282 | C[C@H]1CN(c2cccc3c2ncn3S(=O)(=O)c2ccccc2Cl)CCN1 [Example 79, 1-[(2-chlorophenyl)sulfonyl]-4-[(3S)-3-methylpiperazin-1-yl]-1H-benzimidazole] |
